From patent publication US8367690B2, “Aminopyridine derivatives having aurora a selective inhibitory action” (Vertex Pharmaceuticals Inc., priority 2009, dated 2013)
Counter-ions that a name gives are not always drawn.

What was measured:
[1] = target: T1, GST-tagged human Aurora B(AurB)/His-tagged human INCENP complex proteins (Homo sapiens, UniProt Q96GD4); assay: Aurora B inhibitory activity, Method A (IMAP assay development kit); format: biochemical; conditions: 40 μM ATP, 100 nM substrate, 25° C. for 45 minutes
T1 construct: GST; purchased Curia Biosciences, Inc
Experimental: An assay development kit for IMAP (registered trademark) (Aurora B), purchased from Curia Biosciences, Inc., was used for phosphorylation reaction, and the phosphorylation of a substrate was detected using the IMAP technology. The assay development kit used is comprised of an assay buffer, GST-tagged human Aurora B(AurB)/His-tagged human INCENP complex proteins (amino acid sequence: 803-916, AAU04398.1), and an ATP/substrate solution. Using the same, the phosphorylation reaction was conducted in accordance with a partially revised protocol attached to the kit, and then the phosphorylation of the substrate was detected using the IMAP technology.
For the phosphorylation reaction, 384 well plate was used, and the reaction volume was 10 μl/well. The composition of the reaction buffer (assay buffer) is comprised of 20 mM of HEPES buffer (pH 7.4), 0.01% Tween-20, and 2 mM of dithiothreitol (DTT). Thereto, AurB/INCENP complex protein, 100 nM of the substrate, and 40 μM of ATP, and 1 mM of magnesium salt were added, and then the reaction was conducted at 25° C. for 45 minutes. Thereafter, in order to terminate and detect the reaction, 30 μl of the IMAP (registered trademark) binding reagent (IMAP Progressive Binding Reagent, R7284) that had been diluted (1:400) in the lx IMAP binding buffer A (IMAP Progressive Binding Buffer A, 5× stock, R7282) was added to each well. The solution stood still for 60 minutes in the dark, and then fluorescence polarization was measured using a high-end microplate reader (excitation wavelength: 485 nm; emission wavelength: 520 nm).
(§1) The compound to be tested was added to the reaction system such that a dilution series of the compound in DMSO was prepared, and then 0.5 μL of this solution was added for the testing to each well. Each control well was provided by adding 0.5 μL of DMSO to the well in place of the DMSO solution containing the compound to be tested.
(§2) Using the above method (in the measurement of activity of Aurora B, Method A was used), the results for measurement of the activities of Aurora A and Aurora B were obtained as shown in Table 1. […] Similar results are obtained when Method B is used in the measurement of activity of Aurora B.

[2] = target: T2, His-tagged human Aurora A (Homo sapiens, UniProt O14965); assay: Aurora A inhibitory activity (IMAP fluorescence polarization phosphorylation assay); format: biochemical; conditions: 20 μM ATP, 100 nM peptide substrate, 30° C. for 120 minutes
T2 construct: His (N); made in house; host or cells: Escherichia coli BL21-CodonPlus(DE3)-RIL
T2 sequence (O14965 1-403): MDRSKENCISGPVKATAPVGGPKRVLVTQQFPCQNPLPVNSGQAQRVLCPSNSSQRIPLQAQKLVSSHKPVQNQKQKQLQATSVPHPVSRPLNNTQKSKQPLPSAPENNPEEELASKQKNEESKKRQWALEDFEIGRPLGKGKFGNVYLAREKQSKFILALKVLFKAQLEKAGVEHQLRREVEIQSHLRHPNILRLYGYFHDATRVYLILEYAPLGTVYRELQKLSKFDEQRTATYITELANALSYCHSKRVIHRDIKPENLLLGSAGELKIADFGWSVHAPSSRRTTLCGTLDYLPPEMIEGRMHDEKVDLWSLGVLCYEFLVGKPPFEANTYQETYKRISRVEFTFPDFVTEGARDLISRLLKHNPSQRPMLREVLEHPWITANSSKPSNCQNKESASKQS
Source text: cDNA of N-terminal His-tagged human Aurora A was integrated into an expression vector, which was then highly expressed in Escherichia coli BL21-CodonPlus(DE3)-RIL cells. The Escherichia coli was harvested and lysed, and then the His-tagged human Aurora A protein was applied onto a nickel chelate column and eluted from the column with imidazole. The active fractions were desalted with a desalting column to give a purified enzyme.
For measurement of the activity of Aurora A, the substrate used was a synthetic peptide (5-FAM (5-carboxyfluorescein)-γ-aminobutyric acid-Ala-Leu-Arg-Arg-Ala-Ser-Leu-Gly-NH2) (SEQ.ID.NO.:1), which was purchased from Toray Research Center, Inc.
For the phosphorylation reaction, the method by Upstate, Inc. [Kinase Profiler™ Assay Protocols] was referred to, and phosphorylation of the substrate was detected using IMAP® technology (Molecular Devices, Co. Ltd.) (Gaudet E W. et. al, J. Biomol. Screen, 8, 164-175(2003)). Concretely, the phosphorylation reaction and the detection were carried out as follows:
The phosphorylation reaction was conducted using 384 well plate, and the reaction volume was 10 μl/well. The reaction buffer is comprised of 50 mM Tris-chloride buffer (pH 7.4), 15 mM magnesium acetate, and 0.2 mM ethylenediamine-N,N,N′,N′-tetraacetic acid (EDTA). Thereto, the purified Aurora A protein, 100 nM of the peptide substrate, and 20 μM of adenosine 5′-triphosphate (ATP) were added, and then the reaction was carried out at 30° C. for 120 minutes.
Thereafter, in order to terminate and detect the reaction, 30 μl of the IMAP (registered trademark) binding reagent (IMAP Progressive Binding Reagent, R7284) that had been diluted (1:400) in the lx IMAP binding buffer A (IMAP Progressive Binding Buffer A, 5× stock, R7282) was added to each well. The solution stood still for 60 minutes in the dark, and then fluorescence polarization was measured using a high-end microplate reader (excitation wavelength: 485 nm; emission wavelength: 520 nm).
as §1, with “in dimethylsulfoxide (DMSO)” for “in DMSO”
as §2

T1 sequence (Q96GD4 whole entry): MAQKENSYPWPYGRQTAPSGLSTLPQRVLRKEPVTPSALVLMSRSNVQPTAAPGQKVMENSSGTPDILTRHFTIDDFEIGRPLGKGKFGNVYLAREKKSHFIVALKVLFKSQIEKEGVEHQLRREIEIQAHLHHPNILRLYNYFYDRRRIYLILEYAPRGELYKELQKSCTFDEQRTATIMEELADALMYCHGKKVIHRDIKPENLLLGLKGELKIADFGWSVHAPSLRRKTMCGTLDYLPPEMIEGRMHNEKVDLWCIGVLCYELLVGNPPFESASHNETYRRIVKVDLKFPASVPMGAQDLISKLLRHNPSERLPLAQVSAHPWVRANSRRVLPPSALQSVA
T1 sequence (Q9NQS7 803-916 partner limits assumed): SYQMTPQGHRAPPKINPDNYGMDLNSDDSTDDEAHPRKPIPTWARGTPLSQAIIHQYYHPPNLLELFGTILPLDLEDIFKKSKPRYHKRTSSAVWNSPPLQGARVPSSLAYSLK

Row | IC50 [1] [nM] | IC50 [2] [nM] | SMILES
1 | 275 | 0.81 | Cc1cc(Nc2cc(C3CC3)[nH]n2)nc(N2C[C@H](C(=O)O)C[C@H](C3CCCCC3)C2)n1 (stereo in doubt) [Example 21, (3R*,5R*)-5-cyclohexyl-1-{4-[(3-cyclopropyl-1H-pyrazol-5-yl)amino]-6-methylpyrimidin-2-yl}piperidine-3-carboxylic acid trifluoroacetate]
2 | 350 | < 0.3 | Cc1cc(Nc2cc(C3CC3)[nH]n2)nc(N2C[C@@H](CC(=O)O)C[C@@H](C3CCCCC3)C2)n1 (stereo in doubt) [Example 24, [(3R*,5S*)-5-cyclohexyl-1-{4-[(3-cyclopropyl-1H-pyrazol-5-yl)amino]-6-methylpyrimidin-2-yl}piperidin-3-yl]acetic acid]
3 | 1150 | 2.4 | Cc1cc(Nc2cc(C3CC3)[nH]n2)nc(N2C[C@@H](C(=O)O)C[C@@H](C3CCCCC3)C2)n1 (stereo in doubt) [Example 20, (3S*,5S*)-5-cyclohexyl-1-{4-[(3-cyclopropyl-1H-pyrazol-5-yl)amino]-6-methylpyrimidin-2-yl}piperidine-3-carboxylic acid trifluoroacetate]

Further lines, the compound ahead of its results:

Row | SMILES | IC50 [1] [nM] | IC50 [2] [nM]
4 | Cc1cc(Nc2cc[nH]n2)nc(N2C[C@H](C(=O)O)C[C@H](C3CCCCC3)C2)n1 (relative stereo) [Example 13, cis-5-cyclohexyl-1-[4-methyl-6-(1H-pyrazol-5-ylamino)pyrimidin-2-yl]piperidine-3-carboxylic acid trifluoroacetate] | 6620 | 1.1
5 | Cc1cc(Nc2cc(C3CC3)[nH]n2)nc(N2C[C@H](CC(=O)O)C[C@H](C3CCCCC3)C2)n1 (stereo in doubt) [Example 23, [(3S*,5R*)-5-cyclohexyl-1-{4-[(3-cyclopropyl-1H-pyrazol-5-yl)amino]-6-methylpyrimidin-2-yl}piperidin-3-yl]acetic acid] | 2680 | 4
6 | Cc1cc(Nc2cc[nH]n2)nc(N2C[C@@H](NC(=O)OC(C)(C)C)C[C@@H](C(=O)O)C2)n1 (relative stereo) [Example 8, cis-5-[(tert-butoxycarbonyl)amino]-1-[4-methyl-6-(1H-pyrazol-5-ylamino)pyrimidin-2-yl]piperidine-3-carboxylic acid] | 7390 | 9.1
7 | Cc1cc(Nc2cc[nH]n2)nc(N2C[C@H](NC(=O)OC(C)(C)C)C[C@@H](C(=O)O)C2)n1 (relative stereo) [Example 6, trans-5-[(tert-butoxycarbonyl)amino]-1-[4-methyl-6-(1H-pyrazol-5-ylamino)pyrimidin-2-yl]piperidine-3-carboxylic acid] | > 10000 | 55
8 | Cc1cc(Nc2cc[nH]n2)nc(N2C[C@H](C(=O)O)C[C@H](c3ccccc3)C2)n1 (relative stereo) [Example 10, cis-1-[4-methyl-6-(1H-pyrazol-5-ylamino)pyrimidin-2-yl]-5-phenylpiperidine-3-carboxylic acid trifluoroacetate] | 7910 | 7.8
